Experimental data taken from patent publication US12064405B2, “Immunosuppressant comprising TSAHC or a pharmaceutically acceptable salts thereof as an active ingredient” (Seoul National University R&DB Foundation, priority 2020, dated 2024).

Assays:
[1] = test system: cell lines expressing TM4SF5; assay: qRT-PCR of M1-type macrophage chemokines/cytokines CCL2, TNF-α, IL-6, IL-1β; type: cell-based; details: cell line expressing TM4SF5, LPS and IFN-γ
Protocol: Cell lines not expressing TM4SF5 (EV) or cell lines expressing thereof (TM4SF5) were treated (+) or not treated with LPS and IFN-γ, treated (+) or not treated with 2-DG (2-Deoxy-D-glucose) as a drug for inhibiting glycolysis at a given concentration, and additionally treated (+) or not treated with TSAHC (−). Then, the mRNA expression levels of CCL2, TNF-α, IL-6, and IL-1β, the chemokines/cytokines indicating the activation of M1-type macrophages, were confirmed by qRT-PCR.

cells expressing TM4SF5 = assay: Activation of glycolytic function (acidification of extracellular solution, Seahorse); type: cell-based
Protocol: The cells expressing TM4SF5 were treated with vehicle, a negative control compound (4′-methoxy-4-dihydroxychalcone) or TSAHC. Then, the degree of activation of glycolytic function was measured by measuring the acidification of the extracellular solution due to glycolysis while additionally adding glucose at various concentrations using Seahorse equipment.

[2] = test system: M0 THP-1 cells expressing TM4SF5; assay: Glycolytic Proton Efflux Rate (GlycoPER) in M0 THP-1 cells treated with CCL20 or CXCL10; type: cell-based, human; details: 300 ng/ml for 24 hours, FIG. 9
Protocol: THP-1 cells infected with a lentivirus with an empty vector not expressing TM4SF5 or a lentivirus expressing TM4SF5 were treated with 100 nM phorbol-12-myristate-13-acetate (PMA) for 24 hours to differentiate into M0 cells (experimental condition to confirm the not repetitive effects of cytokines/chemokines in the early stage by representing the case before differentiation into M1 type), and then, 300 ng/ml of CCL20 or CXCL10 was treated for 24 hours, and basal and compensatory Glycolytic Proton Efflux Rate (GlycoPER) were measured using a Seahorse XFp device.

[3] = test system: M1 and M2 type macrophages differentiated from THP-1 cells; assay: qRT-PCR of M1 or M2 type macrophage markers in macrophages differentiated from THP-1 cells; type: cell-based, human; details: 100 nM for 24 hours; for mRNA levels of M1 type macrophage markers (TNFα, IL1β, IL6) compared to the control group: M1 type macrophages, FIG. 12A
Protocol: M1 and M2 type macrophages (MΦ) differentiated from THP-1 cells were treated with CCL20 or CXCL10 at a concentration of 100 nM for 24 hours, and then the mRNA expression levels of the markers indicating the activity as M1 or M2 type macrophages were confirmed by qRT-PCR. For M1 type macrophages, the mRNA expression levels of TNFα, IL1β and IL6 were measured, and for M2 type macrophages, the mRNA expression levels of CD206 and FN1 were measured.

Ccl20 = assay: CCl4-induced liver damage, inflammation and fibrosis with suppression of Ccl20 expression by siRNA; type: in vivo, mouse
Protocol: 12-week-old normal WT or Tm4sf5^−/− KO mice (5 per group) were intraperitoneally injected with CCl4 (TRC, Canada, C176905, 10 mg/kg/40% olive oil) twice a week for 4 weeks. Ccl20 siRNA [sense 5′-GGAGGAAAUGAUCACAGCUtt-3′ (SEQ. ID. NO: 101), antisense 5′-AGCUGUGAUCAUUUCCUCCtt-3 (SEQ. ID. NO: 102) was purchased from Ambion (Austin Texas, USA) and diluted to an appropriate concentration in PBS. Ccl20 siRNA (1.66 mg/kg) or vehicle was intravenously injected into the mice twice a week. After 4 weeks, liver and blood samples of the animals were obtained.
As shown in the scheme of FIG. 5, 12-week-old normal C57BL/6 mice were intraperitoneally injected with CCl4 (40% in olive oil) at a concentration of 10 mg/kg body weight twice a week for 26 days. At the same time, siRNA against CCL20 (Amibon, Austin Texas, USA, Assay ID 72932, sense 5′-GGAGGAAAUGAUCACAGCUtt-3′, antisense 5′-AGCUGUGAUCAUUUCCUCCtt-3′) dissolved in PBS at a concentration of 1.66 mg/kg was intravenously injected for 26 days before the CCl4 injection. After 26 days of the injection, the mice were sacrificed, and the liver tissue was obtained. Then, the disease state of the liver was investigated by performing immunohistochemistry (IHC), Masson's trichrome staining and qRT-PCR.
Specifically, for H&E staining, the tissue was placed in a 60° C. oven for about 20 minutes to separate the tissue from paraffin, and when the paraffin melted, the tissue was immersed in xylene three times for 5 minutes each. The tissue was put into 100%→90%→80%→70% ethanol→distilled water for 3 minutes each in the order, and then immersed in a hematoxylin solution for 5 minutes to react. After sufficiently washing the tissue with tap water, it was reacted with an eosin solution for about 20 minutes, and washed again with tap water. Then, the tissue was immersed in 70%→80%→90%→100% ethanol→xylene for 3 minutes each in the order for dehydration, followed by mounting on a slide.
Paraffin blocks and liver tissue sections for immunohistochemical staining were obtained from Abion Inc. (Seoul, Korea). As antibodies, F4/80 (Cell Signaling Technology), Ccl20, laminin γ2 (Santa Cruz Biotechnology) were used.
For Masson's trichrome staining, the tissue was first separated from paraffin and then reacted in a preheated bouin's solution for 1 hour. After rinsing the tissue with tap water until the solution was completely drained, it was reacted in a hematoxylin solution for 10 minutes, and then rinsed again with tap water. Then, the tissue was reacted in a biebrich scarlet-acid fuchsin solution for 5 minutes, immersed in distilled water, and reacted in a phosphotungstic/phosphomolybdic acid solution for 15 minutes. The tissue was immersed in an Aniline blue solution for 10 minutes and 1% acetic acid for 1 minute for dehydration. The tissue was immersed in xylene, followed by mounting on a slide.

Q: Which “CCL2 mRNA expression level” value ([1]; FIG. 11A) does the source give for O=CC[C@@H](O)[C@H](O)[C@H](O)CO [2-DG, 2-Deoxy-D-glucose, reference compound] here?
A: Its value is “decreased”.

Q: What about the “TNF-α mRNA expression level” value ([1]; FIG. 11B) of the same compound?
A: The value was “decreased”.

Q: What about the “IL-6 mRNA expression level” value ([1]; FIG. 11C) of the same compound?
A: Its value is “decreased”.

Q: What about the “IL-1β mRNA expression level” value ([1]; FIG. 11D) of the same compound?
A: The value was “decreased”.

Q: “4′-methoxy-4-dihydroxychalcone [control compound, reference compound]” was tested. Which “glycolysis of the cells not expressing TM4SF5 (EV)” value (cells expressing TM4SF5; EV cell line, FIG. 8B) did it give?
A: Its value is “not changed”.

Q: And the “glycolytic function of cells expressing TM4SF5” value (cells expressing TM4SF5; various concentrations of glucose added, FIG. 8C)?
A: Its value is “not changed”.

Q: How did the “glycolytic function (basal and compensatory GlycoPER) versus vehicle-treated control group” value [2] turn out when “CXCL10: chemokine used to treat THP-1-derived macrophages” was run?
A: Its value is “higher”.

Q: What about the “mRNA levels of M1 type macrophage markers (TNFα, IL1β, IL6) compared to the control group” value [3] of the same compound?
A: The value was “decreased”.

Q: Which “glycolytic function (basal and compensatory GlycoPER) versus vehicle-treated control group” value [2] does the source give for “CCL20: chemokine used to treat THP-1-derived macrophages” here?
A: The value was “higher”.

Q: And the “mRNA levels of M1 type macrophage markers (TNFα, IL1β, IL6) compared to the control group” value [3]?
A: Its value is “decreased”.

Q: What about the “mRNA levels of M2 type macrophage markers (CD206, FN1)” value ([3]; M2 type macrophages, CCL20 alone or together with CXCL10, FIG. 12B) of the same compound?
A: The value was “significantly increased”.

Q: With “Ccl20 siRNA: siRNA against CCL20 (Ambion), sense 5′-GGAGGAAAUGAUCACAGCUtt-3′, antisense 5′-AGCUGUGAUCAUUUCCUCCtt-3′ (sense GGAGGAAAUGAUCACAGCUTT; antisense AGCUGUGAUCAUUUCCUCCTT; chemistry not given here)” as the compound, how does the “collagen type 1 α1 chain (Col1α1) mRNA level in liver” value (Ccl20; during CCl4 treatment, FIG. 6A) read?
A: The value was “decreased”.

Q: What about the “Ccl20 mRNA level in liver” value (Ccl20; during CCl4 treatment, FIG. 6B) of the same compound?
A: Its value is “decreased”.

Q: What about the “F4/80 mRNA level in liver” value (Ccl20; during CCl4 treatment, FIG. 6C) of the same compound?
A: Its value is “decreased”.

Q: And the “α-smooth muscle actin (Sma) mRNA level in liver” value (Ccl20; during CCl4 treatment, FIG. 6D)?
A: Its value is “decreased”.

Q: And the “effect of CCl4 treatment (liver tissue damage, collagen accumulation, Ccl20 and Cxcl10 accumulation, F4/80 macrophage infiltration, laminin γ2 accumulation)” value (Ccl20; siRNA 1.66 mg/kg intravenously, CCl4 10 mg/kg twice a week, 26 days, FIG. 5)?
A: The value was “significantly inhibited”.
